Measurements: PubChem BioAssay (NCI)
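Interpolation was linear, between the two tested concentrations surrounding the appropriate level; five concentrations were tested over 48 hours in 96-well plates. TGI is the concentration that stops growth completely.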 Where a SMILES comes first, the peptide text is derived from it. The star is where a group is joined. Boc = CC(C)(C)OC(=O)*; OBn = c1ccc(CO*)cc1

Assays:
Test in all cases: DTP human tumour cell line panel, 48 h
HCT-15 colon = system: HCT-15 colon
BT-549 breast = system: BT-549 breast
HS 578T breast = system: HS 578T breast
PC-3 prostate = system: PC-3 prostate
MOLT-4 leukemia = system: MOLT-4 leukemia
SF-539 CNS = system: SF-539 CNS
OVCAR-4 ovarian = system: OVCAR-4 ovarian
TK-10 renal = system: TK-10 renal
M14 melanoma = system: M14 melanoma
786-0 renal = system: 786-0 renal
NCI-H226 lung = system: NCI-H226 lung
SF-268 CNS = system: SF-268 CNS
NCI-H23 lung = system: NCI-H23 lung
SF-295 CNS = system: SF-295 CNS
U251 CNS = system: U251 CNS
SNB-19 CNS = system: SNB-19 CNS
MALME-3M melanoma = system: MALME-3M melanoma
OVCAR-5 ovarian = system: OVCAR-5 ovarian
SR leukemia = system: SR leukemia
MDA-N = system: MDA-N

Compound | TGI (HCT-15 colon) | TGI (BT-549 breast) | TGI (HS 578T breast) | TGI (PC-3 prostate) | TGI (MOLT-4 leukemia) | TGI (SF-539 CNS) | TGI (OVCAR-4 ovarian) | TGI (TK-10 renal) | TGI (M14 melanoma) | TGI (786-0 renal) | TGI (NCI-H226 lung) | TGI (SF-268 CNS) | TGI (NCI-H23 lung) | TGI (SF-295 CNS) | TGI (U251 CNS) | TGI (SNB-19 CNS) | TGI (MALME-3M melanoma) | TGI (OVCAR-5 ovarian) | TGI (SR leukemia) | TGI (MDA-N)
CCOC(=O)NNC(=O)C1CSC(c2ccccc2)N1C(C)=O (configuration not stated) | > 100 µM | > 100 µM | > 100 µM | > 100 µM | > 100 µM | > 100 µM | > 100 µM | > 100 µM | > 100 µM | > 100 µM | > 100 µM | > 100 µM | > 100 µM | > 100 µM | > 100 µM | > 100 µM | > 100 µM | > 100 µM | – | –
O=C1c2ccccc2C(O)(C(=O)O)C1(O)CC=C(Cl)Cl (configuration not stated) | > 125 µM | – | – | – | > 125 µM | > 125 µM | > 125 µM | – | – | – | > 125 µM | > 125 µM | > 125 µM | > 125 µM | > 125 µM | > 78.9 µM | > 125 µM | > 125 µM | – | –
O=[n+]1c2ccccc2n([O-])c2ccccc21 | > 100 µM | – | > 100 µM | > 100 µM | 81.2 µM | > 100 µM | > 100 µM | > 100 µM | > 100 µM | > 100 µM | > 100 µM | > 100 µM | > 100 µM | > 100 µM | > 100 µM | > 100 µM | > 100 µM | > 100 µM | > 100 µM | –
N=c1oc2ccc([N+](=O)[O-])cc2cc1C(=O)NCc1ccccc1 | 33.5 µM | 30 µM | 42.9 µM | 40.3 µM | > 100 µM | 33.3 µM | 63.5 µM | 99.4 µM | 61.3 µM | 40 µM | 26.9 µM | 40.6 µM | – | > 100 µM | 83 µM | > 100 µM | 26.7 µM | 96 µM | > 100 µM | –
CC(C)C(NC(=O)C(Cc1ccccc1)NC(=O)OC(C)(C)C)C(=O)NCC(=O)OCc1ccccc1 (stereo not drawn) (Boc-Phe-Val-Gly-OBn; configuration not given here) | 26.7 µM | – | – | 29.5 µM | 39.7 µM | 43.3 µM | 58.8 µM | 27.1 µM | 36.5 µM | 32.1 µM | – | 28.2 µM | 36.1 µM | 34.6 µM | 32.2 µM | 58.4 µM | 37.5 µM | 28.7 µM | – | 33.5 µM
O=c1[nH]n(Cc2ccccc2Cl)c2ccc([N+](=O)[O-])cc12 | > 100 µM | – | > 100 µM | – | > 100 µM | > 100 µM | > 100 µM | > 100 µM | > 100 µM | > 100 µM | > 100 µM | > 100 µM | > 100 µM | – | > 100 µM | > 100 µM | > 100 µM | > 100 µM | > 100 µM | > 100 µM
CCCCCCCCCCCCCCCCCCNc1ccn(C2OC(COP(=O)(O)OC3CC(n4cc(F)c(=O)[nH]c4=O)OC3COP(=O)(O)OCC3OC(n4ccc(N)nc4=O)C(O)C3O)C(O)C2O)c(=O)n1 (configuration not stated) | 41.4 µM | 33.4 µM | > 100 µM | > 66.7 µM | 29.2 µM | 2.17 µM | > 100 µM | > 100 µM | 23.4 µM | > 58.1 µM | > 82.2 µM | – | > 45.7 µM | > 51.9 µM | > 50.4 µM | > 57.9 µM | > 100 µM | > 100 µM | 25.6 µM | –
Ic1ncnc2c1ncn2C1CCCO1 (configuration not stated) | > 100 µM | – | – | – | > 100 µM | > 100 µM | > 100 µM | > 100 µM | > 100 µM | > 100 µM | > 100 µM | > 100 µM | > 100 µM | > 100 µM | > 100 µM | > 100 µM | > 100 µM | > 100 µM | > 100 µM | –
O=C(Nc1ccc(Cl)cc1)C(=O)C(C(=O)c1ccccc1-c1ccccc1)C1OC(=O)c2ccccc21 (configuration not stated) | 37.3 µM | – | – | – | > 100 µM | 58.4 µM | > 100 µM | 57.3 µM | 42.4 µM | – | 24 µM | 64.1 µM | 53.4 µM | > 100 µM | 27.8 µM | 38.2 µM | – | 92.4 µM | 82.9 µM | –
CC(=O)O[C@@H]1CC[C@@]2(C)C(CC[C@H]3[C@@H]4CC[C@H]([C@H](C)CCc5nc6ccc(C)cc6[nH]5)[C@@]4(C)CC[C@@H]32)C1 (some centres not stated) | > 100 µM | > 100 µM | > 100 µM | > 100 µM | > 100 µM | > 100 µM | > 100 µM | > 100 µM | > 100 µM | > 100 µM | 48.1 µM | > 100 µM | > 100 µM | > 100 µM | > 100 µM | > 100 µM | – | > 100 µM | – | –
COC(=O)C(C)NP(=O)(N1CC1)N1CC1 (configuration not stated) | > 100 µM | – | – | – | > 100 µM | > 100 µM | > 100 µM | > 100 µM | > 100 µM | – | – | > 100 µM | > 100 µM | > 100 µM | > 100 µM | > 100 µM | > 100 µM | > 100 µM | – | –
